Entries after “also recorded” stand apart in the source; their conditions may differ. Like-named read-outs stand apart in the source and are kept apart here. Peptide text beside a SMILES is read from it.
How the values were obtained:
[1] = Calcein release assay from lipid vesicles; conditions: calcein entrapped POPC:POPG (1:1) LUVs, 25 μM, 10 mM sodium phosphate buffer pH 7.4, increasing defensin concentrations; 1% Triton X-100 = 100%
Procedure: Large unilamellar vesicles (LUVs) composed of POPC:POPG (1:1) containing 50 mM calcein were prepared by lipid extrusion method. Desired amounts of lipids from their respective chloroform stocks were taken into a glass tube and dried under a nitrogen stream to form a thin uniform lipid film. The film was further dried under vacuum for 5 to 6 hours to remove trace amounts of organic solvents. After this step, the lipid film was hydrated with 10 mM sodium phosphate buffer (pH 7.4) containing 50 mM calcein at 4°C for 12 to 15 hours. Hydrated lipid films were then vortexed and passed through polycarbonate membrane having a pore diameter of 100 nm using a mini-extruder (Avanti Polar Lipid Inc.). Free calcein was removed by passing through a Sephadex G50 column. Calcein entrapped vesicles (25 μM) were then treated with increasing concentrations of defensins and extent of calcein released was measured in a Fluorolog 3–22 fluorescence spectrophotometer (Jobin Yvon, USA). Excitation and emission wavelengths used were 485 and 515 nm, respectively. 1% Triton X-100 was used for complete release of calcein.  Fig 5 Effect of human defensins on POPC:POPG (1:1) vesicles. Calcein entrapped POPC: POPG vesicles (25 μM) were treated with increasing concentrations of human defensins and percentage of calcein released was calculated. Calcein released by 1% Triton X-100 was taken as 100%.

E. coli inner membrane [2] = conditions: ref Wang et al. [55]; cited from earlier work
Procedure: Recent findings indicate HD5 exerts its activity against the E. coli by localizing to bacterial cytoplasm and possibly interacting with DNA [39]. In a very recent study, Wang et al., have shown that HD5 permeabilizes the E. coli inner membrane. However, prolonged incubation (~40 minutes) was required t ...

E. coli inner membrane [3] = experiment: SYTOX green uptake assay using fluorescent spectroscopy; assay type: cell-based, Escherichia coli; conditions: 2 × MBC of defensins, 200 nM SYTOX green, 5 × 10^6 CFU/mL, 10 mM phosphate buffer
Procedure: Effect of defensins on the E. coli inner membrane was assessed by measuring the extent of intracellular accumulation of SYTOX green. Cells from mid-log-phase were collected, washed and resuspended in 10 mM phosphate buffer. The final density was adjusted to 5 × 10^6 CFU/mL. […] Enhancement in SYTOX green fluorescence, a direct measure of the extent of membrane permeabilization was monitored in a Flurolog 3–22 fluorescence spectrophotometer (Jobin Yvon, USA). Excitation and emission wavelengths used were 503 nm and 523 nm, respectively.  Fig 4 Accumulation of SYTOX green in human defensins treated E. coli. […] The arrows indicate the point at which defensins were added.

[4] = Transmission electron microscopy of defensin aggregates; assay type: physicochemical; conditions: 20 μM defensin in 10 mM sodium phosphate buffer pH 7.4, uranyl acetate stain, TEM
Procedure: Defensins were diluted to a concentration of 20 μM in 10 mM sodium phosphate buffer (pH 7.4) from their respective stocks solutions (dissolved in Milli-Q water). From these solutions, 5 μL was deposited on a carbon-coated Formvar 200-mesh copper grid. The grid was left undisturbed for about 5 minutes; excess buffer was then removed using Whatman filter paper. Grids were stained with uranyl acetate (2% w/v) for 45 seconds. Excess stain was removed and grids were used for recording the images. Images were recorded using JAM-2100 LaB6 transmission electron microscope (JEOL, Tokyo, Japan) at 100 kV.

E. coli inner membrane [5] = experiment: Time-lapse fluorescence confocal microscopy (SYTOX green / FM4-64); assay type: cell-based, Escherichia coli; conditions: for Intracellular accumulation of SYTOX green (E. coli inner membrane permeabilization): sub-lethal concentrations: HBD1 3 μM, HBD2 3 μM, HBD3 1 μM, HBD4 3 μM, HNP3 8 μM, HNP4 4 μM, HD5 2.5 μM, HD6 5 μM, 10^6 CFU/mL, 10 mM sodium phosphate buffer pH 7.4; for Intracellular accumulation of SYTOX green (E. coli inner membrane permeabilization) / time at which SYTOX green accumulation is evident: 5 nM SYTOX green; for time at which SYTOX green accumulation is evident: sub-lethal defensin concentrations, time-lapse confocal microscopy
Procedure: Effect of defensins on the E. coli inner membrane was examined using time-lapse confocal fluorescence microscopy. The assay was carried out as follows. Bacteria from the mid-log-phase was collected and resuspended (final density was adjusted to 10^6 CFU/mL) in 10 mM sodium phosphate buffer (pH 7.4). Cells were then treated with 3 μM FM4-64 for 20 minutes at room temperature to stain the inner membrane. FM4-64 is a lipophilic dye which stains the bacterial inner membrane. Excess dye was removed by centrifuging. The FM4-64 stained cells were then treated with sub-lethal concentrations of defensins in presence of 5 nM of SYTOX green. […] Cells were immediately transferred to chambered slides and images were recorded using 100X oil immersion objective on a Leica Ultraspectral microscope SP8 (Leica Microsystems). Argon 488 and HeNe 561 lasers were used to excite SYTOX green and FM4-64, respectively. Signals ranging from 510 to 560 nm and 600 to 740 nm were collected for SYTOX green and FM4-64, respectively. Images were processed using LAS-AFver3.1.3 (Leica Microsystems).

E. coli = experiment: Zeta potential of E. coli in the presence of defensins; assay type: cell-based, Escherichia coli; conditions: for E. coli surface charge neutralizing ability (change in zeta potential): 5 μM defensin, except HD5 2.5 μM and HBD3 0.5 μM, three independent experiments; for concentration found to neutralize the E. coli surface charge almost completely: zeta potential of E. coli
Procedure: Zeta potential of the E. coli in the presence of human defensins was measured as described previously. The concentration of peptide used was 5μM, except for HBD3 and HD5. […] Cells were treated with 5 μM defensin and zeta potential was measured, except in the cases of HD5 and HBD3. In the cases of HD5 and HBD3, zeta potential was measured after treating with 2.5 μM and 0.5 μM of peptides, respectively. Control represent zeta potential of E. coli in the absence of any peptide. Error bars represents standard deviations of three independent experiments.

E. coli MG1655 = conditions: cited from earlier work
Description: Table 2 Minimum Bactericidal Concentration (MBC) of human defensins against E. coli MG1655. | column: Minimum bactericidal concentration in μM^a

[6] = ref Krishnakumari et al. 2013 [44]

CC[C@H](C)[C@@H]1NC(=O)[C@H](CCC(=O)O)NC(=O)[C@@H]2CSSC[C@@H]3NC(=O)[C@H](Cc4ccc(O)cc4)NC(=O)[C@@H](NC(=O)[C@@H](NC(=O)[C@H](C)N)[C@@H](C)O)CSSC[C@@H](C(=O)N[C@@H](CCCNC(=N)N)C(=O)O)NC(=O)[C@H](CSSC[C@H](NC(=O)[C@H](CCCNC(=N)N)NC(=O)CNC(=O)[C@H]([C@@H](C)O)NC(=O)[C@H](CCCNC(=N)N)NC3=O)C(=O)N[C@@H](C)C(=O)N[C@@H]([C@@H](C)O)C(=O)N[C@@H](CCCNC(=N)N)C(=O)N[C@@H](CCC(=O)O)C(=O)N[C@@H](CO)C(=O)N[C@@H](CC(C)C)C(=O)N[C@@H](CO)C(=O)NCC(=O)N[C@@H](C(C)C)C(=O)N2)NC(=O)[C@H](CC(C)C)NC(=O)[C@H](CCCNC(=N)N)NC(=O)[C@H](Cc2ccc(O)cc2)NC(=O)[C@H](CC(C)C)NC(=O)[C@H](CCCNC(=N)N)NC(=O)CNC(=O)[C@H](CO)NC1=O [HD5] (HELM PEPTIDE1{A.T.C.Y.C.R.T.G.R.C.A.T.R.E.S.L.S.G.V.C.E.I.S.G.R.L.Y.R.L.C.C.R}$PEPTIDE1,PEPTIDE1,3:R3-31:R3|PEPTIDE1,PEPTIDE1,5:R3-20:R3|PEPTIDE1,PEPTIDE1,10:R3-30:R3$$$V2.0; N-terminus and C-terminus assumed)
Permeabilization of lipid vesicles (calcein release) [1]: do not permeabilize membranes | incubation required to observe E. coli inner membrane perturbation (E. coli inner membrane [2]): ~ 40 minutes | Damage to the E. coli inner membrane (SYTOX green accumulation, time-lapse microscopy and fluorescent spectroscopy) (E. coli inner membrane [3]): do not cause extensive damage to the E. coli inner membrane | Morphology of self-assembled aggregates (electron micrographs) [4]: rod-like structures | Intracellular accumulation of SYTOX green (E. coli inner membrane permeabilization) (E. coli inner membrane [5]): does not permeabilize the E. coli inner membrane; also recorded: faint localization of SYTOX green | time at which SYTOX green accumulation is evident (E. coli inner membrane [5]): 30 min | E. coli surface charge neutralizing ability (change in zeta potential) (E. coli): neutralizes the E. coli surface charge at much lower concentration than HNP4 | concentration found to neutralize the E. coli surface charge almost completely (E. coli): 2.5 µM

GIINTLQKYYC^1RVRGGRC^2AVLSC^3LPKEEQIGKC^2STRGRKC^1C^3RRKK (bicyclic or more) [HBD3, human β-defensin, three disulfide bonds, purchased from Peptides International]
Minimum bactericidal concentration (E. coli MG1655; [6]): 2 µM | E. coli surface charge neutralizing ability (change in zeta potential) (E. coli): most efficient bacterial surface charge neutralizing ability | concentration found to neutralize the E. coli surface charge almost completely (E. coli): 0.5 µM

DHYNC^1VSSGGQC^2LYSAC^3PIFTKIQGTC^2YRGKAKC^1C^3K (bicyclic or more) [HBD1, human β-defensin, three disulfide bonds, purchased from Peptides International]
Minimum bactericidal concentration (E. coli MG1655; [6]): 8 µM | Permeabilization of lipid vesicles (calcein release) [1]: do not permeabilize membranes | Damage to the E. coli inner membrane (SYTOX green accumulation, time-lapse microscopy and fluorescent spectroscopy) (E. coli inner membrane [3]): do not cause extensive damage to the E. coli inner membrane | Intracellular accumulation of SYTOX green (E. coli inner membrane permeabilization) (E. coli inner membrane [5]): faint accumulation of SYTOX green | time at which SYTOX green accumulation is evident (E. coli inner membrane [5]): ~ 20 min | E. coli surface charge neutralizing ability (change in zeta potential) (E. coli): poor surface charge neutralizing ability

CC[C@H](C)[C@@H]1NC(=O)[C@H](CC(C)C)NC(=O)[C@@H]2CSSC[C@@H]3NC(=O)[C@H](CO)NC(=O)[C@@H](NC(=O)[C@@H](N)C(C)C)CSSC[C@@H](C(=O)N[C@H](C(=O)N[C@@H](CCCNC(=N)N)C(=O)N[C@H](C(=O)O)C(C)C)[C@@H](C)O)NC(=O)[C@H](CSSC[C@H](NC(=O)[C@H](Cc4ccccc4)NC(=O)[C@H](C(C)C)NC(=O)[C@H](CC(C)C)NC(=O)[C@H](CCCNC(=N)N)NC3=O)C(=O)N[C@@H](CCCNC(=N)N)C(=O)N[C@@H](CCCNC(=N)N)C(=O)N[C@@H]([C@@H](C)O)C(=O)N[C@@H](CCC(=O)O)C(=O)N[C@@H](CC(C)C)C(=O)N[C@@H](CCCNC(=N)N)C(=O)N[C@@H](C(C)C)C(=O)NCC(=O)N[C@@H](CC(N)=O)C(=O)N2)NC(=O)[C@H](Cc2ccc(O)cc2)NC(=O)[C@H]([C@@H](C)O)NC(=O)[C@H](Cc2ccccc2)NC(=O)[C@H](CO)NC(=O)[C@H](C(C)C)NC(=O)CNC(=O)CNC1=O [HNP4] (HELM PEPTIDE1{V.C.S.C.R.L.V.F.C.R.R.T.E.L.R.V.G.N.C.L.I.G.G.V.S.F.T.Y.C.C.T.R.V}$PEPTIDE1,PEPTIDE1,2:R3-30:R3|PEPTIDE1,PEPTIDE1,4:R3-19:R3|PEPTIDE1,PEPTIDE1,9:R3-29:R3$$$V2.0; N-terminus and C-terminus assumed)
Intracellular accumulation of SYTOX green (E. coli inner membrane permeabilization) (E. coli inner membrane [5]): cytoplasmic accumulation of SYTOX green is evident | time at which SYTOX green accumulation is evident (E. coli inner membrane [5]): 11 min

GIGDPVTC^1LKSGAIC^2HPVFC^3PRRYKQIGTC^2GLPGTKC^1C^3KKP (bicyclic or more) [HBD2, human β-defensin, three disulfide bonds, purchased from Peptides International]
Minimum bactericidal concentration (E. coli MG1655; [6]): 8 µM

ELDRIC^1GYGTARC^2RKKC^3RSQEYRIGRC^2PNTYAC^1C^3LRKWDESLLNRTKP (bicyclic or more) [HBD4, human β-defensin, three disulfide bonds, purchased from Peptides International]
Minimum bactericidal concentration (E. coli MG1655; ref Sharma and Nagaraj 2012 [45]): 5 µM | Permeabilization of lipid vesicles (calcein release) [1]: does not permeabilize PC:PG vesicles | Morphological features of FM4-64 stained E. coli inner membrane (E. coli inner membrane [5]; 3 μM FM4-64, sub-lethal defensin concentration (HBD4 3 μM)): FM4-64 staining shows considerable diffusion into cytoplasm

AFTC^1HC^2RRSC^3YSTEYSYGTC^2TVMGINHRFC^3C^1L (bicyclic or more) [HD6]
Permeabilization of lipid vesicles (calcein release) [1]: do not permeabilize membranes | Damage to the E. coli inner membrane (SYTOX green accumulation, time-lapse microscopy and fluorescent spectroscopy) (E. coli inner membrane [3]): do not cause extensive damage to the E. coli inner membrane | Morphology of self-assembled aggregates (electron micrographs) [4]: distinctive fibrillar morphology | E. coli surface charge neutralizing ability (change in zeta potential) (E. coli): neutralizes the E. coli surface charge more efficiently than HBD4 (+7), HBD1 (+ 4) and HNP3 (+2)

From article PMC5397029, “Variations in the interaction of human defensins with Escherichia coli: Possible implications in bacterial killing” (PLoS ONE, 2017)
